Key:
[1] = tested on: PDK1 kinase activity in PC3 cells (phospho-T308-PKB); assay: Cellular testing of PDK1 kinase inhibitors in PC3 cells (Luminex, phospho-T308-PKB); format: cell-based; settings: Homo sapiens, PC-3, 0.5 h, 30 min with test substance, serum-free, phospho-T308-PKB by Luminex, read-out: IC50 [PC3 P-PKB Thr308]
Procedure, shortened: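 Serum-starved PC3 cells treated 30 min with compound (7-point dilution); lysates captured on anti-total-PKB Luminex beads, with phospho-T308-PKB detected by antibody. Signals corrected by 10 μM staurosporine blank, expressed as percent of 0.3% DMSO control, giving IC50.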

A2780 (ovary) = assay: Tumour cell proliferation/vitality assay (Alamar Blue); format: cell-based; settings: Homo sapiens, 96 h, A2780 cells, 4 days of cultivation with test substance
Procedure: In the present experiment description, the inhibition of tumour cell proliferation/tumour cell vitality by active ingredients is described.
The cells are sown in a suitable cell density in microtitre plates (96-well format) and the test substances are added in the form of a concentration series. After four further days of cultivation in serum-containing medium, the tumour cell proliferation/tumour cell vitality can be determined by means of an Alamar Blue test system.
The cells are cultivated in medium. At intervals of several days, the cells are detached from the culture dishes with the aid of trypsin solution and sown in suitable dilution in fresh medium. The cells are cultivated at 37° Celsius and 10% CO2.
A defined number of cells (for example 2000 cells) per culture/well in a volume of 180 μl of culture medium are sown in microtitre plates (96 well cell-culture plates) using a multichannel pipette. The cells are subsequently cultivated in a CO2 incubator (37° C. and 10% CO2).
The test substances are dissolved, for example, in DMSO and subsequently employed in corresponding concentration (if desired in a dilution series) in the cell culture medium. The dilution steps can be adapted depending on the efficiency of the active ingredients and the desired spread of the concentrations. Cell culture medium is added to the test substances in corresponding concentrations. The addition of the test substances to the cells can take place on the same day as the sowing of the cells. To this end, in each case 20 μl of substance solution from the predilution plate are added to the cultures/wells. The cells are cultivated for a further 4 days at 37° Celsius and 10% CO2.
In each case, 20 μl of Alamar Blue reagent are added per well, and the microtitre plates are incubated, for example, for a further seven hours in a CO2 incubator (at 37° C. and 10% CO2). The plates are measured in a reader with a fluorescence filter at a wavelength of 540 nm. The plates can be shaken gently immediately before the measurement.
The absorbance value of the medium control (no cells and test substances used) is subtracted from all other absorbance values. The controls (cells without test substance) are set equal to 100 percent, and all other absorbance values are set in relation thereto (for example in % of control):
IC50 values (50% inhibition) are determined with the aid of statistics programs, such as, for example, RS1.

PDK1 = target: T1, PDK1 (Homo sapiens, UniProt O15530); assay: Test for the inhibition of PDK1 (flashplate, 33P-ATP); format: biochemical; settings: His6-PDK1 3.4 nM, 4 μM ATP, 30° C., 60 min
T1 construct: His6 (N)
Procedure, shortened: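 His6-PDK1(1-50) at 3.4 nM with biotinylated peptide substrate (400 nM) and 4 μM ATP plus 33P-ATP, 60 min at 30° C. Incorporated radioactivity counted; blank from 100 nM staurosporin subtracted. Activity given as % of no-compound control; IC50 from dilution series.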

T1 sequence (O15530 51-556): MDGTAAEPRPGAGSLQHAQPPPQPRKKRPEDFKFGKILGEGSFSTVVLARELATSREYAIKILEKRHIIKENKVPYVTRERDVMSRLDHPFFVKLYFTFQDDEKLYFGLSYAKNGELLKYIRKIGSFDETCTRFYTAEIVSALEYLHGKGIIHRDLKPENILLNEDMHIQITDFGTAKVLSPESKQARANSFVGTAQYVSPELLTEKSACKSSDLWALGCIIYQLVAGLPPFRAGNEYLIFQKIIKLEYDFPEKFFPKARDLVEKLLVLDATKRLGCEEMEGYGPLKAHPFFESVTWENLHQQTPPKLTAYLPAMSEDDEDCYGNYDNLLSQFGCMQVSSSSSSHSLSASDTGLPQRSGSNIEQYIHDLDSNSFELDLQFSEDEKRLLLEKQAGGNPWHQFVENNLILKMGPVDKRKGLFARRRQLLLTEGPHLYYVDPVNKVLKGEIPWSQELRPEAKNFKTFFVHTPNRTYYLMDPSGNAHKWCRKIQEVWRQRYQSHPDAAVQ

SMILES | IC50 [1] [nM] | IC50 (A2780 (ovary)) [nM] | IC50 (PDK1) [nM]
CCc1cc(-c2c[nH]c3ncc(-c4cnn(CC5CCCO5)c4)cc23)nc(N)n1 (stereo not drawn) [Compound A2, 4-ethyl-6-{5-[1-(tetrahydrofuran-2-ylmethyl)-1H-pyrazol-4-yl]-1H-pyrrolo[2,3-b]pyridin-3-yl}-pyrimidin-2-ylamine] | 10000 to 20000 | 10 to 1000 | 10 to 1000
CCc1cc(-c2c[nH]c3ncc(-c4cnn(C5CCN(C)CC5)c4)cc23)nc(N)n1 [Compound A5, 4-ethyl-6-{5-[1-(1-methylpiperidin-4-yl)-1H-pyrazol-4-yl]-1H-pyrrolo[2,3-b]pyridin-3-yl}-pyrimidin-2-ylamine] | 1000 to 10000 | 10 to 1000 | 10 to 1000
CC(C)n1cc(-c2cnc3[nH]cc(-c4cc(C(C)(O)c5ccccc5)nc(N)n4)c3c2)cn1 (stereo not drawn) [Compound A55, 1-{2-Amino-6-[5-(1-isopropyl-1H-pyrazol-4-yl)-1H-pyrrolo[2,3-b]pyridin-3-yl]-pyrimidin-4-yl}-1-phenylethanol] | 10 to 1000 | 10 to 1000 | 10 to 1000
CCC(O)(c1ccccc1)c1cc(-c2c[nH]c3ncc(-c4cnn(C(C)C)c4)cc23)nc(N)n1 (stereo not drawn) [Compound A59, 1-{2-amino-6-[5-(1-isopropyl-1H-pyrazol-4-yl)-1H-pyrrolo[2,3-b]pyridin-3-yl]pyrimidin-4-yl}-1-phenylpropan-1-ol] | 10 to 1000 | 10 to 1000 | 10 to 1000
CCc1cc(-c2c[nH]c3ncc(-c4cnn(CCCN(C)C)c4)cc23)nc(N)n1 [Compound A4, 4-{5-[1-(3-dimethylaminopropyl)-1H-pyrazol-4-yl]-1H-pyrrolo[2,3-b]pyridin-3-yl}-6-ethylpyrimidin-2-ylamine] | 1000 to 10000 | 1000 to 10000 | 10 to 1000
CCc1cc(-c2c[nH]c3ncc(-c4cnn(C5CCNCC5)c4)cc23)nc(N)n1 [Compound A6, 4-ethyl-6-[5-(1-piperidin-4-yl-1H-pyrazol-4-yl)-1H-pyrrolo[2,3-b]pyridin-3-yl]pyrimidin-2-ylamine] | 10000 to 20000 | 1000 to 10000 | 10 to 1000
CCc1cc(-c2c[nH]c3ncc(-c4cnn(CCN5CCCC5)c4)cc23)nc(N)n1 [Compound A7, 4-ethyl-6-{5-[1-(2-pyrrolidin-1-ylethyl)-1H-pyrazol-4-yl]-1H-pyrrolo[2,3-b]pyridin-3-yl}pyrimidin-2-ylamine] | 10000 to 20000 | 10 to 1000 | 10 to 1000
CCc1cc(-c2c[nH]c3ncc(-c4cnn(CCNC)c4)cc23)nc(N)n1 [Compound A3, 4-ethyl-6-{5-[1-(2-methylaminoethyl)-1H-pyrazol-4-yl]-1H-pyrrolo[2,3-b]pyridin-3-yl}pyrimidin-2-yl] | 10000 to 20000 | 10 to 1000 | 10 to 1000
CCc1cc(-c2c[nH]c3ncc(-c4cnn(CCN5CCOCC5)c4)cc23)nc(N)n1 [Compound A8, 4-ethyl-6-{5-[1-(2-morpholin-4-ylethyl)-1H-pyrazol-4-yl]-1H-pyrrolo[2,3-b]pyridin-3-yl}pyrimidin-2-ylamine] | 1000 to 10000 | 1000 to 10000 | 10 to 1000

Further lines, results first:

IC50 [1] [nM] | IC50 (A2780 (ovary)) [nM] | IC50 (PDK1) [nM] | SMILES
1000 to 10000 | 1000 to 10000 | 10 to 1000 | CC(C)C(O)c1cc(-c2c[nH]c3ncc(-c4cnn(C(C)C)c4)cc23)nc(N)n1 (stereo not drawn) [Compound A102, 1-{2-Amino-6-[5-(1-isopropyl-1H-pyrazol-4-yl)-1H-pyrrolo[2,3-b]pyridin-3-yl]-pyrimidin-4-yl}-2-methylpropan-1-ol]
10 to 1000 | 10 to 1000 | 10 to 1000 | CC(C)n1cc(-c2cnc3[nH]cc(-c4cc([C@@](C)(O)c5ccccc5)nc(N)n4)c3c2)cn1 [Compound A124, (S)-1-{2-Amino-6-[5-(1-isopropyl-1H-pyrazol-4-yl)-1H-pyrrolo[2,3-b]pyridin-3-yl]pyrimidin-4-yl}-1-phenylethanol]
1000 to 10000 | 10 to 1000 | 10 to 1000 | CCC[C@H](O)c1cc(-c2c[nH]c3ncc(-c4cnn(C(C)C)c4)cc23)nc(N)n1 [Compound A90, (S)-1-{2-Amino-6-[5-(1-isopropyl-1H-pyrazol-4-yl)-1H-pyrrolo[2,3-b]pyridin-3-yl]pyrimidin-4-yl}butan-1-ol]
10 to 1000 | 10 to 1000 | 10 to 1000 | CC(C)n1cc(-c2cnc3[nH]cc(-c4cc([C@](C)(O)c5ccccc5)nc(N)n4)c3c2)cn1 [Compound A123, (R)-1-{2-Amino-6-[5-(1-isopropyl-1H-pyrazol-4-yl)-1H-pyrrolo[2,3-b]pyridin-3-yl]pyrimidin-4-yl}-1-phenylethanol]
10 to 1000 | 10 to 1000 | 10 to 1000 | CCC[C@@H](O)c1cc(-c2c[nH]c3ncc(-c4cnn(C(C)C)c4)cc23)nc(N)n1 [Compound A91, (R)-1-{2-Amino-6-[5-(1-isopropyl-1H-pyrazol-4-yl)-1H-pyrrolo[2,3-b]pyridin-3-yl]pyrimidin-4-yl}butan-1-ol]

Source: patent US8420820B2, “Pyrrolopyridinylpyrimidin-2-ylamine derivatives” (Merck Patent GmbH, priority 2008, dated 2013)
